Laboratory results as given in patent publication US8377851B2, “Method of altering the alkaloid composition in poppy plants” (priority 2004, dated 2013).
Where two headings read alike, the source gives them in different places.

Legend:
morphine crop [1] = tested on: morphine crop; parameters: species or system Papaver somniferum; conditions: in vivo
morphine crop [2] = tested on: morphine crop; parameters: species or system Papaver somniferum; conditions: in vivo; remark: listed apart in the source
morphine crop [3] = test: Example 29 field trial: methyl jasmonate, capsule/seed ratio and alkaloid assay

O=C(O)CN(CCN(CC(=O)O)CC(=O)O)CC(=O)O [EDTA]
CAPSULE/SEED RATIO (morphine crop [1]): 0.590 c | CODEINE kg/ha (morphine crop [1]): 0.790 b kg/ha | MORPHINE kg/ha (morphine crop [1]): 32.97 a kg/ha | ORIPAVINE kg/ha (morphine crop [1]): 0.618 c kg/ha | SEED kg/ha (morphine crop [1]): 1960 a kg/ha | STRAW CODEINE % (morphine crop [1]): 0.047 b % | STRAW MORPHINE % (morphine crop [1]): 1.98 a % | STRAW O'PAVINE % (morphine crop [1]): 0.036 b % | STRAW THEBAINE % (morphine crop [1]): 0.139 c % | STRAW kg/ha (morphine crop [1]): 1668 b kg/ha | THEBAINE kg/ha (morphine crop [1]): 2.350 c kg/ha | YIELD t/ha (morphine crop [1]): 3.63 ab t/ha

CC/C=C\CC1C(=O)CCC1CC(=O)OC (centres unmarked) [METHYL JASMONATE, methyl jasmonate]
CAPSULE/SEED RATIO (morphine crop [2]): 0.685 c | CODEINE kg/ha (morphine crop [2]): 1.104 a kg/ha | MORPHINE kg/ha (morphine crop [2]): 19.99 b kg/ha | ORIPAVINE kg/ha (morphine crop [2]): 7.853 c kg/ha | SEED kg/ha (morphine crop [2]): 1886 bc kg/ha | STRAW CODEINE % (morphine crop [2]): 0.059 a % | STRAW MORPHINE % (morphine crop [2]): 1.07 b % | STRAW O'PAVINE % (morphine crop [2]): 0.422 b % | STRAW THEBAINE % (morphine crop [2]): 1.028 c % | STRAW kg/ha (morphine crop [2]): 1863 b kg/ha | THEBAINE kg/ha (morphine crop [2]): 19.124 c kg/ha | YIELD kg/ha (morphine crop [2]): 3.75 a kg/ha | CAPSULE/SEED RATIO (morphine crop [3]; METHYL JAS .15 L/ha at EF): 0.575 a | STRAW CODEINE (morphine crop [3]; METHYL JAS .15 L/ha at EF): 0.064 b % | STRAW MORPHINE (morphine crop [3]; METHYL JAS .15 L/ha at EF): 2.04 a % | STRAW O'PAVINE (morphine crop [3]; METHYL JAS .15 L/ha at EF): 0.009 b % | STRAW THEBAINE (morphine crop [3]; METHYL JAS .15 L/ha at EF): 0.042 b % | CAPSULE/SEED RATIO (morphine crop [3]; METHYL JAS .15 L/ha at GCAPS): 0.577 a | STRAW CODEINE (morphine crop [3]; METHYL JAS .15 L/ha at GCAPS): 0.044 c % | STRAW MORPHINE (morphine crop [3]; METHYL JAS .15 L/ha at GCAPS): 2.01 a % | STRAW O'PAVINE (morphine crop [3]; METHYL JAS .15 L/ha at GCAPS): 0.005 c % | STRAW THEBAINE (morphine crop [3]; METHYL JAS .15 L/ha at GCAPS): 0.033 c % | CAPSULE/SEED RATIO (morphine crop [3]; METHYL JAS .3 L/ha at EF): 0.581 a | STRAW CODEINE (morphine crop [3]; METHYL JAS .3 L/ha at EF): 0.075 a % | STRAW MORPHINE (morphine crop [3]; METHYL JAS .3 L/ha at EF): 2.09 a % | STRAW O'PAVINE (morphine crop [3]; METHYL JAS .3 L/ha at EF): 0.011 a % | STRAW THEBAINE (morphine crop [3]; METHYL JAS .3 L/ha at EF): 0.051 a % | CAPSULE/SEED RATIO (morphine crop [3]; METHYL JAS .3 L/ha at GCAPS): 0.577 a | STRAW CODEINE (morphine crop [3]; METHYL JAS .3 L/ha at GCAPS): 0.042 c % | STRAW MORPHINE (morphine crop [3]; METHYL JAS .3 L/ha at GCAPS): 2.04 a % | STRAW O'PAVINE (morphine crop [3]; METHYL JAS .3 L/ha at GCAPS): 0.004 c % | STRAW THEBAINE (morphine crop [3]; METHYL JAS .3 L/ha at GCAPS): 0.029 c %
